Results taken from PubChem BioAssay AID449762 (Southern Research Specialized Biocontainment Screening …, 2010).
Results filed as inconclusive are left out.

Tested on: M. tuberculosis H37Rv growth inhibition, 7H9 media
Test: M. tuberculosis growth inhibition, HTS (AID 449762);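 also: bacterial growth assessed after seven days of incubation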
Details: for IC90: measured here: IC90 growth inhibition

| SMILES | IC50 [µM] | IC90 [µM] |
| --- | --- | --- |
| CCCCCCN=C1CC(C)(C)CC(=O)/C1=C(/O)CCC | 43 | > 100 |
| CCCC(=O)OCCNc1cc(SCCC(=O)OC)c2nonc2c1[N+](=O)[O-] | 1.49 | 5.7 |
| N[C@@H](CCl)C(=O)O | 39.4 | 58.9 |
| CCOC(=O)c1ccc(N=c2sc(C(=O)OC)cc(=O)n2CCCN2CCOCC2)cc1 | 4.52 | 12 |
| COc1cc2c(cc1OC)CN(CCC(=O)c1ccc(Br)cc1)CC2 | 12.1 | 13.7 |
| CCOC(=O)c1[nH]c2ccc(F)cc2c1NC(=O)CN1CCN(C/C=C/c2ccccc2)CC1 | 19.1 | 27.1 |
| Cc1cc(=O)oc2cc(Oc3ccc([N+](=O)[O-])cc3C(F)(F)F)ccc12 | 68.7 | > 100 |
| CCOC(=O)c1cc(/C(C)=N/OC(=O)c2ccc(C(C)(C)C)cc2)on1 | 13.1 | 24.8 |
| COc1ccccc1N1C(=O)NC(=O)/C(=C/c2ccc([N+](=O)[O-])s2)C1=O | – | > 100 |
| COc1cc(/C=C(\C#N)c2nc3c(s2)CC(C)CC3)ccc1O (centres undefined) | 31.5 | 63.5 |
| Cc1ccnc(N2CCC(C(=O)Nc3cccc(C(F)(F)F)c3)CC2)n1 | 47.5 | > 100 |
| CCOc1cc2c(cc1OCC)-n1cccc1C(c1ccc(C(C)C)cc1)NC2 (centres undefined) | 20.6 | 29.6 |
| CCOC(=O)COc1ccc(/C=C2\NC(=S)N(CC)C2=O)cc1 | 1.17 | 8.47 |
| Cc1ccc2c(c1)c1ncnc(N3CCc4ccccc4C3)c1n2C | 81.1 | > 100 |
| Cc1ccnc(NC(=O)CCc2c[nH]c3ccccc23)c1 | 25.8 | 54.4 |
| COC(=O)c1ccc(N/C(C)=C/C(=O)c2ccc(C)o2)cc1 | 97.4 | > 100 |
| CCCOC(=O)/C(=C\c1ccc([N+](=O)[O-])o1)NC(=O)c1ccccc1 | 11 | 16.2 |
| COC(=O)c1ccc(C(=O)OC)c(NC(=O)CSc2cccc[n+]2[O-])c1 | 2.97 | 3.37 |
| Cc1nc2ccc(OC(=O)c3ccccc3)cc2s1 | 66 | 86 |
| Cc1cc2c(N=O)c(NO)ccc2[nH]1 | 10.3 | 15 |
| CCN1CCN(CCCNC(=O)c2ccc(/C=C3/Oc4ccccc4N(Cc4cccc(C)c4)C3=O)cc2)CC1 | 29.6 | 42.2 |
| CC1CCc2c(sc3ncnc(NCCCOC(C)C)c23)C1 (centres undefined) | 53.2 | 67.1 |

| SMILES | IC50 [µM] | IC90 [µM] |
| --- | --- | --- |
| Cc1[nH]c2ccccc2c1/C=N/Nc1nc(Nc2ccccc2)nc(N2CCOCC2)n1 | 2.88 | 10 |
| N/C(Cc1ccc([N+](=O)[O-])cc1)=N\OC(=O)c1ccc2ccccc2c1 | 22.5 | > 100 |
| COc1ccccc1-n1cc2c([N+](=O)[O-])cc([N+](=O)[O-])cc2n1 | < 0.2 | 3.18 |
| CCCCCCCCn1c2c(c(=N)c3c1CCC3)CCCC2 | 19 | 26.4 |
| CCC[C@@H]1C[C@@H](C(=O)NC(C(C)Cl)[C@H]2O[C@H](SC)[C@H](O)[C@@H](O)[C@H]2O)N(C)C1 (some centres undefined) | 1.53 | 5.1 |
| O=C(CCl)N1CCN2C(=O)c3ccccc3C12c1ccc(Cl)cc1 (centres undefined) | 5.42 | 7.84 |
| Cc1ccc(OCCCCNC2CCCC(C)C2C)c(C)c1 (centres undefined) | 21.8 | 24.2 |
| CNC[C@@H](Cc1ccccc1)NC[C@@H](CC1CCCCC1)NCCCc1ccccc1 | 7.96 | 9.49 |
| COC(=O)c1[nH]c2cc(OC)ccc2c1NC(=O)CN1CCN(c2cccc(C)c2)C(C)C1 (centres undefined) | 26.6 | 40.2 |
| O=Nc1c2nc3ccccc3n(O)c-2c2ccccc12 | 10.7 | 15.7 |
| Cc1ccc(C2(c3ccc(C)cc3)CC2C(=O)Nc2ccc([N+](=O)[O-])cc2O)cc1 (centres undefined) | 19.7 | 27.1 |
| CCc1cc(/C(Cc2ccccn2)=N\Nc2ccccc2)c(O)cc1O | 60.5 | 77.4 |
| c1ccc(-n2cnc3cc(NCc4cccs4)ccc32)cc1 | 85.6 | 97.2 |
| O=c1c2cc(-c3ccccc3)sc2ncn1/N=C/c1ccco1 | 82.7 | > 100 |
| Cc1ccc(/C=C/C(=O)N2CC(C)CC(C)C2)o1 (centres undefined) | 8.06 | 22.1 |
| O=C(NCCc1ccccc1)[C@@H]1CC=C[C@@H]2CCN(Cc3ccc(Cl)c(Cl)c3)C(=O)[C@@H]21 | 51.3 | 79.1 |
| Cc1ccc(-c2cc(-c3ccccc3C)[nH]n2)c(O)c1 | 22.2 | > 100 |
| Cc1cccc(/C=c2\s/c(=C\C(=O)C(C)(C)C)[nH]c2=O)c1 | 5.66 | 23.6 |
| O=C(CSc1cccc[n+]1[O-])c1cccs1 | 12 | 16.5 |
| COc1ccc(C2(c3ccc(OC)cc3)NC(=O)N(CC(=O)Nc3ccc(OC(F)F)cc3)C2=O)cc1 | 29.9 | 79.9 |
| COC(=O)c1cc(/C=C/c2ccccc2)on1 | 16.9 | > 100 |
| Cc1nc(-c2ccccc2)sc1C(=O)/C=C/c1ccccc1 | 10.3 | 14.5 |

| SMILES | IC50 [µM] | IC90 [µM] |
| --- | --- | --- |
| Cc1cc(C)c2ccc(NN)nc2c1O | 3.6 | 4.95 |
| COc1ccc(C)cc1Nc1n[n+](-c2ccccc2)c(-c2c(Cl)cccc2Cl)s1 | 19.6 | 25.9 |
| O=[N+]([O-])c1cn(-c2nc(-c3ccco3)cc(C(F)(F)F)n2)cn1 | 1.77 | 22 |
| CC/C(=C(\c1ccc(O)cc1)c1ccc(OCCN(C)C)cc1)c1ccccc1 | 22.5 | 35.4 |
| O=C1NCN(c2ccccc2)C12CCN(CCCC(c1ccc(F)cc1)c1ccc(F)cc1)CC2 | 36.8 | 47.1 |
| CSc1ccc(CNC(=O)C2Cc3cc(S(=O)(=O)N4CCCCC4)ccc3N2C(C)=O)cc1 (centres undefined) | 46.4 | > 50 |
| CCOC(=O)c1cnc2ccc(OCC)cc2c1N1CCN(c2ccccc2)CC1 | 27.1 | > 100 |
| Cc1ccc(C(=O)N2N=C(c3ccc(NS(C)(=O)=O)cc3)CC2c2cccs2)cc1 (centres undefined) | 12.4 | 21.2 |
| C=C(C)C1CC=C(CN2CCN(Cc3ccccc3)CC2)CC1 (centres undefined) | 15.7 | 25.9 |
| COc1ccc2c(c1)[C@@H]1[C@H](CO2)[C@H](c2ccccc2)[C@]2(C)C(=O)Nc3ccc(C)cc3C(=O)N12 | 49.5 | > 100 |
| Clc1cc(Cl)cc(Nc2ncn[nH]2)c1 | 24.1 | > 100 |
| CCC1=C(OC(=O)N(CC)CC)N2C(=O)OC(=NCCc3c[nH]c4ccccc34)[C@]2(Cc2ccccc2)[C@H]2C1=CC[C@H]1C(=O)NC(=O)[C@H]12 | 30.7 | 44.8 |
| O=C(OCc1ccccc1F)c1cnc(Cl)c(Cl)c1 | 13.1 | 49.8 |
| CCCOc1cccc(-c2nn(-c3ccccc3)cc2/C=C(\C#N)C(=O)NCCCn2ccnc2)c1 | 44.7 | 62.3 |
| O=C(Nc1ccc(C2=NCCN2)cc1)c1ccc(Cl)c(C(=O)Nc2ccc(C3=NCCN3)cc2)c1 | 11.3 | 12.3 |
| COC(=O)C(C)Oc1cc(C)ccc1COc1ccc(-n2nc(C)n(C(F)F)c2=O)cc1 (centres undefined) | 16.6 | 32.9 |
| O=C(C[n+]1ccc(C(=O)N/N=C/c2ccc(O)cc2)cc1)c1ccccc1 | 4.47 | > 100 |
| N#C/C(=N/Nc1ccc(OC(F)(F)F)cc1)C(N)=S | 2.14 | 3.43 |
| Cc1ccc(C(=O)N/C(=C/c2ccc(-c3cc(C(F)(F)F)ccc3Cl)o2)C(=O)NCc2cccnc2)cc1 | 37.8 | > 100 |
| CN(Cc1ccc(Cl)s1)C(=O)CCl | 0.66 | 0.91 |
| CC(NC(=O)CCl)c1ccc(Cl)c(Cl)c1 (centres undefined) | 1.17 | 2.91 |
| c1ccc(-c2ccc(C(c3ccccc3)n3ccnc3)cc2)cc1 (centres undefined) | 19.7 | 31.7 |

| SMILES | IC50 [µM] | IC90 [µM] |
| --- | --- | --- |
| O=C(OCc1ccccc1)c1cccc(-c2nnn(Cc3ccccc3)n2)c1 | 67.7 | > 100 |
| COC(=O)c1c(NC(=O)CC2SC(N)=NC2=O)sc2c1CCC(C(C)(C)C)C2 (centres undefined) | 34.4 | 51.3 |
| COc1ccccc1OC(=O)c1ccc(S(=O)(=O)N(C)C)cc1 | 9.96 | 18.4 |
| CC(C)(C)NC(=O)C(c1c[nH]c2ccccc12)N(C(=O)Cn1nnc(-c2ccc(F)cc2)n1)c1cccc(O)c1 (centres undefined) | 64 | > 100 |
| COc1cccc(C(=O)NC2CC3CCCC(C2)N3CC(=O)Nc2ccc(N(C)C)cc2)c1 (centres undefined) | 19.7 | 24.8 |
| Cc1cc(C)c2cc(C(=O)Nc3ccc(C)c(F)c3)[nH]c2c1 | 0.94 | 1.69 |
| O=C(CN1CCCCC1)Nc1nnc(-c2ccc([N+](=O)[O-])cc2)s1 | 16.2 | 62.4 |
| CSc1ccccc1C(=O)NC1CCSc2ccccc21 (centres undefined) | 9.3 | > 100 |
| CCNC(=S)NN=C1c2ccccc2-c2ccccc21 | 11.2 | 12.7 |
| COc1ccc(OCc2cccc(C(=O)Nn3cc([N+](=O)[O-])cn3)c2)cc1 | 9.92 | 36.5 |
| CCOC(=O)Cn1c(C)c(Br)c(=O)c2cccc(C)c21 | 7.53 | 22.7 |
| COc1cccc(Nc2ccc([N+](=O)[O-])c3nonc23)c1 | 9.43 | 13.6 |
| N#CCn1c(CCl)nc2ccccc2c1=O | 5.21 | 17.4 |
| Cc1ccc2nc3c(cc(C(=O)NCc4ccco4)c(=N)n3Cc3ccco3)c(=O)n2c1 | 31.9 | > 100 |
| c1ccc(CC2CCN(C3=Nc4cccc5cccc3c45)CC2)cc1 | 29.3 | 38.1 |
| CC1(c2ccc(Cl)c(Cl)c2)NC(=S)N2C1NC(=S)N2c1ccccc1 (centres undefined) | – | > 100 |
| O=C(Nc1nc(-c2cc(Cl)sc2Cl)cs1)c1cccs1 | 29.3 | > 100 |
| S=C(NCCc1ccccc1)NN=C1CCCCCC1 | 23.1 | 26.6 |
| COc1ccc(N2CCN(C(=O)c3ccc(CNc4c(N5CCOCC5)c(=O)c4=O)cc3)CC2)cc1 | 2.42 | 5.17 |
| Cc1cc([N+](=O)[O-])c2ccccc2[n+]1[O-] | 5.76 | 9.62 |
| O=C1C(Br)=Cc2cccc3cccc1c23 | < 0.2 | < 0.2 |
| COc1ccc(/C=N/Nc2nncn2N)cc1Br | 10.8 | 16.3 |
